# Reference: ChEMBL document CHEMBL5537110, “SIRT1-dependent mitochondrial biogenesis supports therapeutic effects of 4-butyl-polyhydroxybenzophenone compounds against NAFLD” (Eur J Med Chem, 2023)
# Active and inactive are the calls of the source. The rule behind the calls is not given here.
# Legend:
# [1] = tested on: HepG2; experiment: Recovery of mitochondrial biogenesis in 40% FBS-induced steatosis human HepG2 cells model assessed as increase in SIRT1 mRNA expression incubated for 24 hrs by qRT-PCR analysis; assay type: functional, cell-based; details: dose 0.2-5 µM
# [2] = tested on: HepG2; experiment: Inhibition of mitochondrial membrane potential dissipation in 40% FBS-induced steatosis human HepG2 cells model assessed as increase in mitochondrial membrane potential incubated with compound for 24 hrs followed by replacement with steatosis inducing DMEM with 40% FBS medium by JC-1 staining based fluorescence microscopy; assay type: functional, cell-based; details: Mitochondria, dose 0.2-5 µM
# [3] = tested on: HepG2; experiment: Inhibition of liver injury in 40% FBS-induced steatosis human HepG2 cells model assessed as increase in liver protection index by measuring increase in GSH level at 0.2 to 5 uM incubated with compound for 24 hrs followed by replacement with steatosis inducing DMEM with 40% FBS medium; assay type: functional, cell-based; details: dose 0.2-5 µM
# [4] = tested on: HepG2; experiment: Recovery of mitochondrial biogenesis in 40% FBS-induced steatosis human HepG2 cells model assessed as increase in PGC1alpha protein expression incubated for 24 hrs by western blot analysis; assay type: functional, cell-based; details: dose 0.2-5 µM
# [5] = tested on: HepG2; experiment: Inhibition of liver injury in 40% FBS-induced steatosis human HepG2 cells model assessed as increase in liver protection index by measuring increase in ratio of GSH to GSSG at 0.2 to 5 uM incubated in steatosis inducing DMEM with 40% FBS medium for 24 hrs followed by compound treatment; assay type: functional, cell-based; details: dose 0.2-5 µM
# [6] = tested on: HepG2; experiment: Inhibition of liver injury in 40% FBS-induced steatosis human HepG2 cells model assessed as decrease in GDH level at 0.2 to 5 uM incubated in steatosis inducing DMEM with 40% FBS medium for 24 hrs followed by compound treatment; assay type: functional, cell-based; details: dose 0.2-5 µM
# [7] = tested on: Rattus norvegicus; experiment: Hepatoprotective activity against high fat diet-fed NAFLD Sprague-Dawley rat model assessed as decrease in serum AKP level administered intragastrically via gavage for 4 weeks; assay type: functional, organism-based; details: dose 12.3-61.4 mg/kg, route ig
# [8] = tested on: HepG2; experiment: Inhibition of liver injury in 40% FBS-induced steatosis human HepG2 cells model assessed as decrease in AST level at 0.2 to 5 uM incubated in steatosis inducing DMEM with 40% FBS medium for 24 hrs followed by compound treatment; assay type: functional, cell-based; details: dose 0.2-5 µM
# [9] = tested on: HepG2; experiment: Induction of mitochondrial biogenesis in human HepG2 cells assessed as PGC1alpha mRNA expression incubated for 24 hrs in presence of SIRT1 inhibitor, EX527 by qRT-PCR analysis; assay type: functional, cell-based
# [10] = molecular target: T1, Peroxisome proliferator-activated receptor gamma coactivator 1-alpha (Homo sapiens) (UniProt Q9UBK2); experiment: Binding affinity to PGC1alpha in human HepG2 cells assessed as increase in protein abundance at 80 to 320 uM pretreated with compound for 30 mins followed by proteolysis for 15 mins by DARTS assay; assay type: cell-based; details: filed as activator, dose 80-320 µM, time 45.0 min
# T1 sequence (whole entry): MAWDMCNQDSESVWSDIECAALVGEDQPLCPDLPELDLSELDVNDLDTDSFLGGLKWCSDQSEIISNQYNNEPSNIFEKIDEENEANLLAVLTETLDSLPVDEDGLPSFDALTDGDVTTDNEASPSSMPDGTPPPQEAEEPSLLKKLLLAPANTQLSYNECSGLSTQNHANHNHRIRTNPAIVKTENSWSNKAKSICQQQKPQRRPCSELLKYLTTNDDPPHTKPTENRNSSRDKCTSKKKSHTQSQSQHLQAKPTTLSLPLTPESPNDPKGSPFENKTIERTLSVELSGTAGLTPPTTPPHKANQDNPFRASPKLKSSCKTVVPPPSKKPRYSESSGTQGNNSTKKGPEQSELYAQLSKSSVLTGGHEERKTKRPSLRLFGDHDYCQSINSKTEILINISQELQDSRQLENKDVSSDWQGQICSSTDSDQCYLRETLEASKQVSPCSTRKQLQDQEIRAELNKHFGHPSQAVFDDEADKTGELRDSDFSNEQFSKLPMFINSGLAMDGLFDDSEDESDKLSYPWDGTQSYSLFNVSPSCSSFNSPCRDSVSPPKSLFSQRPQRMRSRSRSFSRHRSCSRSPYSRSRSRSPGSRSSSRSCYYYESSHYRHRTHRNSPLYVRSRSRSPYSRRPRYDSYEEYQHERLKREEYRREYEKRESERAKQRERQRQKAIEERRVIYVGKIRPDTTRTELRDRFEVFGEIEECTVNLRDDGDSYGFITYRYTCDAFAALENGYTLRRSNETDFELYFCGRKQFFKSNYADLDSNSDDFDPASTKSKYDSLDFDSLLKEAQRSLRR
# [11] = tested on: HepG2; experiment: Inhibition of lipid toxicity in 40% FBS-induced steatosis human HepG2 cells model assessed as decrease in lipid accumulation at 0.2 to 5 uM incubated with compound for 24 hrs followed by replacement with steatosis inducing DMEM with 40% FBS medium by Oil red O staining based analysis; assay type: functional, cell-based; details: dose 0.2-5 µM
# [12] = tested on: HepG2; experiment: Recovery of mitochondrial biogenesis in 40% FBS-induced steatosis human HepG2 cells model assessed as increase in mitochondrial ND6 protein expression incubated for 24 hrs by western blot analysis; assay type: functional, cell-based; details: dose 0.2-5 µM
# [13] = tested on: HepG2; experiment: Inhibition of liver injury in 40% FBS-induced steatosis human HepG2 cells model assessed as decrease in ALT level at 0.2 to 5 uM incubated with compound for 24 hrs followed by replacement with steatosis inducing DMEM with 40% FBS medium; assay type: functional, cell-based; details: dose 0.2-5 µM
# [14] = tested on: HepG2; experiment: Recovery of mitochondrial biogenesis in 40% FBS-induced steatosis human HepG2 cells model assessed as increase in NRF1 mRNA expression incubated for 24 hrs by qRT-PCR analysis; assay type: functional, cell-based; details: dose 0.2-5 µM
# [15] = tested on: HepG2; experiment: Inhibition of liver injury in 40% FBS-induced steatosis human HepG2 cells model assessed as decrease in ALT level at 0.2 to 5 uM incubated in steatosis inducing DMEM with 40% FBS medium for 24 hrs followed by compound treatment; assay type: functional, cell-based; details: dose 0.2-5 µM
# [16] = tested on: Rattus norvegicus; experiment: Hepatoprotective activity against high fat diet-fed NAFLD Sprague-Dawley rat model assessed as decrease in serum total cholesterol content administered intragastrically via gavage for 4 weeks; assay type: functional, organism-based; details: dose 12.3-61.4 mg/kg, route ig
# [17] = molecular target: T1, Peroxisome proliferator-activated receptor gamma coactivator 1-alpha (Homo sapiens); experiment: Binding affinity to PGC1alpha in human HepG2 cells assessed as increase in thermal stabilization of protein at 320 uM pretreated with compound for 30 mins followed by incubation at 40 to 65 degC for 3 mins by CETSA-WB analysis; assay type: cell-based; details: filed as activator, time 33.0 min
compound,measurement,setting,value
CC(C)(C)c1ccc(C(=O)c2ccc(O)c(O)c2)cc1,Activity,[1],Dose-Dependent Effect
same,inhibition,[2],Dose-Dependent Effect
same,inhibition,[3],Active
same,Activity,[4],Dose-Dependent Effect
same,inhibition,[5],Active
same,inhibition,[6],Active
same,Activity,[7],Active
same,inhibition,[8],Active
same,Activity,[9],inactive
same,Activity,[10],Active
same,inhibition,[11],Active
same,Activity,[12],Dose-Dependent Effect
same,inhibition,[13],Active
same,Activity,[14],Dose-Dependent Effect
same,inhibition,[15],Active
same,Activity,[16],Dose-Dependent Effect
same,Activity,[17],Active
